Data as given in paper PMC11045757, “Group 3 medulloblastoma transcriptional networks collapse under domain specific EP300/CBP inhibition” (Nature Communications, 2024).

Tested on: 460 barcoded cancer cell lines
Experiment: PRISM pooled barcoded cancer cell line growth screen, 10-point dose-response, 5 days, AUC
Type: cell-based
Set-up: scale not given here
Excerpt: Several small molecule inhibitors of distinct protein domains of EP300/CBP are available, though the majority target the histone acetyltransferase domain (HAT) or bromodomain (BRD)[5],[10],[21],[22]. […] We used these tools to investigate the relative contribution of the EP300/CBP BRD or HAT domain to tumor cell growth (Fig. 1a). To do so, we performed 10-point, dose-response growth assays using mixed pools of 460 barcoded cancer cell lines, over five days of treatment in vitro[33],[34]. Growth was measured using an area-under-the-curve (AUC) approach (Supplementary Table 1, Supplementary Fig. 1a). […] Given potential differences in compound penetration and solubility, and to compare the relative cell line and tumor-specific effects of these two compounds in assays performed non-simultaneously, we performed a median normalization of each dataset (Supplementary Table 2).

CO[C@H]1CC[C@H](n2c([C@@H]3CCCC(=O)N3c3ccc(F)c(F)c3)nc3cc(-c4c(C)noc4C)ccc32)CC1 [CCS1477]
AUC (22RV1, Prostate Cancer): 0.7824 | AUC (42MGBA, Glioma): 0.959 | AUC (143B, Osteosarcoma): 0.7756 | AUC (639V, Bladder Cancer): 1 | AUC (647V, Bladder Cancer): 0.9387 | AUC (697, B-cell Leukemia): 0.8421 | AUC (769P, Kidney Cancer): 0.866 | AUC (5637, Bladder Cancer): 0.9709 | AUC (8305C, Thyroid Cancer): 0.9842 | AUC (A101D, Melanoma): 0.9949 | AUC (A204, Rhabdoid): 0.6935 | AUC (A253, Head and Neck Cancer): 0.8895 | AUC (A375, Melanoma): 0.896 | AUC (A427, Lung Cancer): 0.8534 | AUC (A673, Ewing Sarcoma): 0.974 | AUC (A1207, Glioblastoma): 1 | AUC (ACHN, Kidney Cancer): 0.9303 | AUC (AM38, Glioblastoma): 0.9422 | AUC (AN3CA, Endometrial/Uterine Cancer): 0.9421 | AUC (AU565, Breast Cancer): 0.9734 | AUC (BDCM, AML): 0.9113 | AUC (BEN, Lung Cancer): 0.7123 | AUC (BFTC905, Bladder Cancer): 0.9629 | AUC (BHT101, Thyroid Cancer): 0.7216 | AUC (BICR16, Head and Neck Cancer): 0.7276 | AUC (BICR18, Head and Neck Cancer): 0.7534 | AUC (BICR22, Head and Neck Cancer): 0.8618 | AUC (BICR31, Head and Neck Cancer): 0.8654 | AUC (BICR56, Head and Neck Cancer): 0.8942 | AUC (BT16, Rhabdoid): 0.8481 | AUC (BT474, Breast Cancer): 0.9512 | AUC (C32, Melanoma): 0.5879 | AUC (C8166, Lymphoma): 0.8246 | AUC (CADOES1, Ewing Sarcoma): 0.8986 | AUC (CAKI1, Kidney Cancer): 0.9906 | AUC (CAL27, Head and Neck Cancer): 0.9982 | AUC (CAL54, Kidney Cancer): 0.8391 | AUC (CAL62, Thyroid Cancer): 0.9564 | AUC (CAL78, Chondrosarcoma): 0.8691 | AUC (CAL120, Breast Cancer): 0.9482 | AUC (CAOV3, Ovarian Cancer): 0.8478 | AUC (CBAGPN, Ewing Sarcoma): 0.8224 | AUC (CCK81, Colon/Colorectal Cancer): 0.8227 | AUC (CHL1, Melanoma): 0.6111 | AUC (CHLA06ATRT, Rhabdoid): 1 | AUC (CHLA10, Ewing Sarcoma): 0.9814 | AUC (CHLA15, Neuroblastoma): 0.7397 | AUC (CHLA57, Ewing Sarcoma): 0.9985 | AUC (CHP212, Neuroblastoma): 0.8537 | AUC (CI1, B-cell Lymphoma): 0.9278 | AUC (CJM, Melanoma): 0.8842 | AUC (CL11, Colon/Colorectal Cancer): 0.761 | AUC (CL34, Colon/Colorectal Cancer): 0.9427 | AUC (CMLT1, CML): 0.8343 | AUC (COGAR359, Rhabdoid): 1 | AUC (COGE352, Ewing Sarcoma): 0.998 | AUC (COLO320, Colon/Colorectal Cancer): 0.8831 | AUC (COLO678, Colon/Colorectal Cancer): 0.8848 | AUC (COLO783, Melanoma): 0.9736 | AUC (COLO792, Melanoma): 0.8076 | AUC (CORL23, Lung Cancer): 0.9125 | AUC (CORL105, Lung Cancer): 0.8782 | AUC (COV318, Ovarian Cancer): 0.899 | AUC (COV434, Ovarian Cancer): 0.9687 | AUC (CW2, Colon/Colorectal Cancer): 0.9939 | AUC (CW9019, Rhabdomyosarcoma): 0.9021 | AUC (DAOY, Medulloblastoma): 0.8871 | AUC (DEL, Lymphoma): 1 | AUC (DETROIT562, Head and Neck Cancer): 0.9177 | AUC (DKMG, Glioblastoma): 1 | AUC (DL, Rhabdoid): 0.7415 | AUC (DMS53, Lung Cancer): 0.712 | AUC (DMS273, Lung Cancer): 1 | AUC (DND41, T-acute leukemia): 0.9395 | AUC (DU145, Prostate Cancer): 0.9501 | AUC (DU4475, Breast Cancer): 0.7484 | AUC (DV90, Lung Cancer): 0.9154 | AUC (EB1, Lymphoma): 0.7489 | AUC (EBC1, Lung Cancer): 0.7317 | AUC (ECC10, Gastric Cancer): 0.9776 | AUC (ECGI10, Esophageal Cancer): 0.9953 | AUC (EFE184, Endometrial/Uterine Cancer): 0.7698 | AUC (EFM19, Breast Cancer): 0.7512 | AUC (EFO21, Ovarian Cancer): 0.9901 | AUC (EM2, CML): 0.9432 | AUC (EN, Endometrial/Uterine Cancer): 1 | AUC (ES2, Ovarian Cancer): 0.9355 | AUC (ESS1, Endometrial/Uterine Cancer): 0.9966 | AUC (EW8, Ewing Sarcoma): 1 | AUC (EWS502, Ewing Sarcoma): 0.7102 | AUC (FADU, Head and Neck Cancer): 0.8918 | AUC (FTC133, Thyroid Cancer): 0.9601 | AUC (FTC238, Thyroid Cancer): 0.9961 | AUC (G292CLONEA141B1, Osteosarcoma): 1 | AUC (G361, Melanoma): 0.6349 | AUC (G401, Rhabdoid): 0.8875 | AUC (G402, Rhabdoid): 0.8394 | AUC (GB1, Glioblastoma): 0.7767 | AUC (GCT, Pleomorphic Sarcoma): 0.9612 | AUC (GI1, Glioblastoma): 0.7855 | AUC (GOS3, Glioblastoma): 0.984 | AUC (GP2D, Colon/Colorectal Cancer): 0.7748 | AUC (GRANTA519, Lymphoma): 0.9571 | AUC (GSS, Gastric Cancer): 0.646 | AUC (HARA, Lung Cancer): 0.9612 | AUC (HCC33, Lung Cancer): 0.9669 | AUC (HCC38, Breast Cancer): 0.8868 | AUC (HCC44, Lung Cancer): 0.9456 | AUC (HCC56, Colon/Colorectal Cancer): 0.9605 | AUC (HCC78, Lung Cancer): 0.8972 | AUC (HCC95, Lung Cancer): 0.9968 | AUC (HCC515, Lung Cancer): 0.7803 | AUC (HCC1419, Breast Cancer): 0.8162 | AUC (HCC1428, Breast Cancer): 0.8123 | AUC (HCC1438, Lung Cancer): 0.9027 | AUC (HCC1806, Breast Cancer): 0.9831 | AUC (HCC1937, Breast Cancer): 1 | AUC (HCC2108, Lung Cancer): 0.7949 | AUC (HCC4006, Lung Cancer): 0.9703 | AUC (HCT116, Colon/Colorectal Cancer): 0.9792 | AUC (HDMYZ, Lymphoma): 0.8423 | AUC (HDQP1, Breast Cancer): 0.939 | AUC (HEC1B, Endometrial/Uterine Cancer): 0.8393 | AUC (HEC6, Endometrial/Uterine Cancer): 0.9929 | AUC (HEC50B, Endometrial/Uterine Cancer): 0.7901 | AUC (HEL9217, AML): 0.6249 | AUC (HEL, AML): 0.5914 | AUC (HEP3B217, Liver Cancer): 0.9151 | AUC (HEPG2, Liver Cancer): 0.7882 | AUC (HEYA8, Ovarian Cancer): 0.9726 | AUC (HGC27, Gastric Cancer): 0.9831 | AUC (HH, Lymphoma): 0.8948 | AUC (HOS, Osteosarcoma): 0.9628 | AUC (HPBALL, T-acute leukemia): 0.9516 | AUC (HS294T, Melanoma): 0.9659 | AUC (HS766T, Pancreatic Cancer): 0.9722 | AUC (HSC2, Head and Neck Cancer): 0.9695 | AUC (HSC3, Head and Neck Cancer): 0.9769 | AUC (HT29, Colon/Colorectal Cancer): 0.658 | AUC (HT115, Colon/Colorectal Cancer): 0.9413 | AUC (HT144, Melanoma): 1 | AUC (HT1197, Bladder Cancer): 0.9485 | AUC (HT, B-cell Lymphoma): 0.7078 | AUC (HUCCT1, Bile Duct Cancer): 0.9905 | AUC (HUG1N, Gastric Cancer): 0.95 | AUC (HUH1, Liver Cancer): 0.8468 | AUC (HUH7, Liver Cancer): 1 | AUC (HUH28, Bile Duct Cancer): 0.9991 | AUC (HUPT3, Pancreatic Cancer): 0.8687 | AUC (HUPT4, Pancreatic Cancer): 0.7771 | AUC (HUT78, Lymphoma): 0.9925 | AUC (IALM, Lung Cancer): 0.7856 | AUC (IGR37, Melanoma): 1 | AUC (IGROV1, Ovarian Cancer): 0.9601 | AUC (IM95, Gastric Cancer): 0.8194 | AUC (IPC298, Melanoma): 0.9388 | AUC (ISHIKAWAHERAKLIO02ER, Endometrial/Uterine Cancer): 0.9971 | AUC (ISTMES1, Lung Cancer): 0.9282 | AUC (J82, Bladder Cancer): 1 | AUC (JEKO1, Lymphoma): 0.9796 | AUC (JHH1, Liver Cancer): 0.7664 | AUC (JHH4, Liver Cancer): 0.9641 | AUC (JHH5, Liver Cancer): 0.6818 | AUC (JHH7, Liver Cancer): 0.9818 | AUC (JHOC5, Ovarian Cancer): 1 | AUC (JHUEM7, Endometrial/Uterine Cancer): 0.8239 | AUC (JVM3, B-cell Leukemia): 0.9481 | AUC (K029AX, Melanoma): 0.7327 | AUC (KALS1, Glioblastoma): 0.99 | AUC (KARPAS620, Myeloma): 0.9486 | AUC (KATOIII, Gastric Cancer): 0.9783 | AUC (KCL22, CML): 0.7293 | AUC (KD, Rhabdoid): 0.7052 | AUC (KE37, T-acute leukemia): 0.8049 | AUC (KE39, Gastric Cancer): 1 | AUC (KELLY, Neuroblastoma): 0.8609 | AUC (KMBC2, Bladder Cancer): 0.8012 | AUC (KMS11, Myeloma): 0.8305 | AUC (KMS12BM, Myeloma): 0.8083 | AUC (KMS18, Myeloma): 0.8881 | AUC (KMS21BM, Myeloma): 0.9427 | AUC (KMS28BM, Myeloma): 0.7058 | AUC (KMS34, Myeloma): 0.8725 | AUC (KNS42, Glioblastoma): 0.9251 | AUC (KNS60, Glioblastoma): 0.8942 | AUC (KNS62, Lung Cancer): 0.9516 | AUC (KP3, Pancreatic Cancer): 1 | AUC (KPNYN, Neuroblastoma): 0.9626 | AUC (KS1, Glioma): 0.7921 | AUC (KU1919, Bladder Cancer): 0.7361 | AUC (KYM1, Rhabdoid): 0.9475 | AUC (KYSE30, Esophageal Cancer): 0.989 | AUC (KYSE150, Esophageal Cancer): 0.988 | AUC (KYSE410, Esophageal Cancer): 0.9549 | AUC (KYSE510, Esophageal Cancer): 0.928 | AUC (KYSE520, Esophageal Cancer): 0.9953 | AUC (LAMA84, CML): 0.8874 | AUC (LC1SQSF, Lung Cancer): 0.9937 | AUC (LCLC103H, Lung Cancer): 0.945 | AUC (LI7, Liver Cancer): 0.8469 | AUC (LK2, Lung Cancer): 0.7132 | AUC (LMSU, Gastric Cancer): 0.9918 | AUC (LN18, Glioblastoma): 0.9905 | AUC (LNCAPCLONEFGC, Prostate Cancer): 0.7183 | AUC (LOUNH91, Lung Cancer): 1 | AUC (LOVO, Colon/Colorectal Cancer): 0.6312 | AUC (LOXIMVI, Melanoma): 0.8683 | AUC (LS180, Colon/Colorectal Cancer): 0.9873 | AUC (LS411N, Colon/Colorectal Cancer): 0.9732 | AUC (LUDLU1, Lung Cancer): 0.9677 | AUC (LXF289, Lung Cancer): 0.9728 | AUC (M059K, Glioblastoma): 0.8113 | AUC (MALME3M, Melanoma): 0.7988 | AUC (MC116, B-cell Lymphoma): 0.9377 | AUC (MCAS, Ovarian Cancer): 0.9952 | AUC (MCF7, Breast Cancer): 0.7913 | AUC (MDAMB175VII, Breast Cancer): 0.9996 | AUC (MDAMB231, Breast Cancer): 0.8811 | AUC (MDAMB361, Breast Cancer): 0.7401 | AUC (MDAMB436, Breast Cancer): 1 | AUC (MDAMB453, Breast Cancer): 0.5759 | AUC (MDAMB468, Breast Cancer): 1 | AUC (MDST8, Colon/Colorectal Cancer): 0.9162 | AUC (MELHO, Melanoma): 0.7224 | AUC (MESSA, Uterine Sarcoma): 0.7646 | AUC (MFE280, Endometrial/Uterine Cancer): 0.8205
